Results published in PMC3788796, “The Antimicrobial Domains of Wheat Puroindolines Are Cell-Penetrating Peptides with Possible Intracellular Mechanisms of Action” (PLoS ONE, 2013).
Several values for one entry are separate records, joined by “and”; a condition that tells them apart may be missing. Equal values may be shown once.

Experiments:
[1] = tested on: plasmid DNA (pBluescript SK+); assay: Gel retardation assay for in vitro DNA binding; conditions: 100 ng plasmid DNA in 10 µL MilliQ water, 1 h room temperature, peptide 16–500 µg/mL, post-electrophoresis EtBr staining, triplicate assays
Protocol: This test assesses any peptide-DNA binding by noting the retardation of the rate of migration of DNA bands through agarose gels. A number of methods were tested. As per Hsu et al., DNA of a plasmid (200 ng) or a commercial molecular weight marker (50 ng) was mixed with a peptide (to final concentrations of 32, 64, 125 or 250 µg/mL) in 15 µL of 10 mM Tris-1 mM EDTA buffer (pH 8.0), incubated at room temperature for 2 min, then electrophoresed in 0.5% or 1.0% agarose gels containing 0.5 µg/mL ethidium bromide (EtBr). Following Park et al., 100 ng plasmid DNA was mixed with a peptide (to different concentrations) in 20 µL binding buffer (5% glycerol, 10 mM Tris-HCl (pH 8.0), 1 mM EDTA, 1 mM DTT, 20 mM KCl, 50 µg/mL BSA), held for 1 h at room temperature, then electrophoresed in EtBr-containing gels. Finally the protocols were modified to eliminate any interference of EtBr in the initial peptide-DNA binding. Plasmid DNA (100 ng) was mixed with a peptide (to final concentrations of 16, 32, 64, 125, 250 or 500 µg/mL) in 10 µL of MilliQ water, held at room temperature for 1 h and electrophoresed, followed by emersion of gels in EtBr solution (0.5 µg/mL) for 30 min before imaging.

[2] = tested on: Saccharomyces cerevisiae (ATCC 287); assay: MIC of the peptides against yeast cells; format: cell-based; conditions: PDB, 96-well two-fold dilution 250 to 2 µg/mL, 0.5–2×10^3 cells/mL, overnight 30°C, growth observed visually
Protocol: Saccharomyces cerevisiae (ATCC 287) was grown in Potato Dextrose Broth (PDB) overnight at 30°C with shaking at 220 rpm. The cultures were vortexed vigorously and the cell suspension adjusted to 1–5×10^6 cells/mL with PDB (McFarland standard 0.5) and then diluted 1∶200 with PDB to a final concentration of 0.5–2×10^3 cells/mL [37]. The MIC assays were carried out in 96-well plates as described previously. Peptides (PuroA, Pina-M, Pina-W→F and PuroB) in 25 µL volumes were added to the first empty well and a two-fold dilution was carried out across each row with a starting peptide concentration of 250 µg/mL and a final one of 2 µg/mL. Test wells were subsequently inoculated with 75 µL yeast cells (0.5–2×10^3 cells/mL) and incubated overnight at 30°C. Negative control (no peptide) and positive control (fungicide Mycobutanil) wells were also prepared. The MIC was defined as the lowest concentration of the peptide required to inhibit fungal growth, observed visually.

[3] = Calcein dye leakage from bacteria-mimicking LUVs; format: biochemical; conditions: LUVs 10 µM phospholipid, 10 mM Tris, 100 mM NaCl pH 7.4, 5 min, fluorescence 496/515 nm, no-peptide control 28.5, average of duplicate experiments
Protocol: A calcein leakage assay as previously described was performed to determine the effects of PIN-based peptides on the permeability of synthetic large unilamellar vesicles (LUVs), designed to mimic bacterial and mammalian cell membranes. The phospholipids used were DOPC (1,2-dioleoyl-sn-glycero-3-phosphocholine), with zwitterionic head groups and DOPG (1,2-dioleoyl-sn-glycerol-3-[phosphor-rac-(1-glycerol)]), with negatively charged headgroups (Avanti® Polar lipids, Alabaster, USA). These were used to make DOPC:DOPG (1∶3) LUVs to mimic bacterial cell membranes, or DOPC only, to mimic mammalian cell membranes. Calcein-entrapped LUVs were prepared by the extrusion method using an Avanti mini extrusion apparatus (Avanti® Polar Lipids, Alabaster, USA). The DOPC:DOPG (a 1∶3 mixture) or DOPC were dissolved in chloroform (25 mg/mL) and aliquoted into glass test tubes to give a concentration of 2.6 mM when resuspended in 2 mL buffer. Chloroform was evaporated under a stream of N2 and the lipid films were dried overnight under vacuum. The films were then resuspended in 2.0 mL of 70 mM calcein buffer (in 10 mM Tris-HCl, pH 7.4) and incubated at room temperature for 30 minutes. To increase entrapment of the dye, five repeated freeze\thaw cycles were used by placing the vial in liquid N2 and then a warm water bath (37°C). The lipid mixture was then extruded through the mini-extruder 10 times through two stacked 0.1 µm pore-size filters. Free calcein was removed by centrifugation (10, 000×g, 10 min) three times and washing with 10 mM Tris, 100 mM NaCl buffer (pH 7.4). Standards of phosphorus (inorganic P; Pi) were prepared (0.05–1.5 mg/mL) using KH2PO4 and read at 820 nm and a linear standard curve was generated (Figure S1 in File S1). The phospholipid concentration of the vesicle preparations was determined by a total phosphorus assay. The assay reagent was prepared fresh by mixing 1 part of 1% ascorbic acid with 6 parts of 0.42% ammonium molybdate•4H2O in H2SO4 and stored on ice. 7 µL of it was added to 3 µL of vesicle suspensions and incubated for 20 min at 45°C. […] The standard curve of phosphorus standards (Figure S1 in File S1) was used to determine the Pi concentration in a LUV preparation, and this was converted to phospholipid concentration (Table S1 in File S1) to adjust the preparations to the required 10 µM phospholipid concentration prior to peptide treatment.
The calcein-filled LUVs were diluted with 10 mM Tris, 100 mM NaCl buffer (pH 7.4) to a final phospholipid concentration of 10 µM. The experiments were performed in a Varian Cary Eclipse fluorescence spectrophotometer with excitation and emission wavelengths of 496 nm and 515 nm, slit widths of […] and a PMT detector of 600 V. The peptides (PuroA, Pina-M, Pina-W→F and PuroB) were added to LUVs to a final peptide concentration of 8–125 µg/mL in 100 µL volumes and the fluorescence (F) monitored for 5 min at 60 s intervals. The total calcein fluorescence (FT) was determined by addition of 1.0% Triton X100. The dye leakage was calculated as % Leakage = ((F – F0)/(FT – F0)), F0 being fluorescence of each sample at T = 0.

E. coli cells = conditions: data from previous work; cited from earlier work

## FPVTFRFFKFFKG-NH2 [Pina-W→F, PuroA-based peptide with all Trps substituted with Phe residues]
[1]
  Peptide concentration inducing gel retardation, Partial: 32 ± 0 µg/mL
[1]; complete inhibition of migration
  Peptide concentration inducing gel retardation, Full: 64 µg/mL and 64 ± 0 µg/mL
[2]
  MIC against S. cerevisiae: 250 µg/mL
[3]; peptide 8 µg/mL
  % Calcein leakage from DOPC:DOPG LUVs: 29.2%
[3]; peptide 16 µg/mL
  % Calcein leakage from DOPC:DOPG LUVs: 32.0%
[3]; peptide 32 µg/mL
  % Calcein leakage from DOPC:DOPG LUVs: 64%
[3]; peptide 64 µg/mL
  % Calcein leakage from DOPC:DOPG LUVs: 78.0%
[3]; peptide 125 µg/mL
  % Calcein leakage from DOPC:DOPG LUVs: 81.0%
E. coli cells
  MIC against E. coli cells: 32 µg/mL and 32 ± 0 µg/mL
